For assay [1], the system named is HIV mutant virus strain HXB2D with mutation Q40H in the gp41 gene. Briefly: Standard AVE, HXB2D site directed mutant Q40H. The following applies: fold change vs wild type strain HXB2D. The assay is classed as cell-based, HIV-1. An excerpt:
(§1) • Standard Anti-Viral-Experiment “AVE” (wild type HIV strain IIIB+HIV strain HXB2D side directed mutants V38A and Q40H)
(§2) The HIV-1 replication assay measures virus replication (HIV wild type virus strain 111B or HXB2D, or a HIV mutant virus strain HXB2D with mutation V38A or Q40H in the gp41 gene) as an induction of enhanced green fluorescent protein (EGFP) expression. The indicator MT4-LTR-EGFP cells contain an EGFP gene under the control of the HIV-1 LTR promoter sequence. Successful HIV-1 infection results in viral Tat protein expression and subsequent induction of EGFP expression. Compounds/peptides inhibiting HIV-1 infection are expected to reduce EGFP expression as compared to the untreated HIV-infected control.
(§3) Serial 4-fold dilutions of test compounds/peptides were mixed with HIV-1 (IIIB, HXB2D, or a HXB2D mutant virus (V38A or Q40H)) and MT4-LTR-EGFP cells and incubated at 37° C. After 3 days, the wells were examined for EGFP expression using an argon laser-scanning microscope. The effective compound/peptide concentration inhibiting 50% of the virus-induced EGFP signal (EC50) was determined by linear interpolation of the EGFP signal vs. logarithm of the compound concentration; (T20, C34 and Sifuvirtide were added as reference compounds). For the V38A and Q40H mutant viruses, results were reported as a fold change in EC50, as compared with a drug-susceptible wild type strain HXB2D, which forms the backbone of the mutant virus. • Standard AVE (50% Human Serum)

The test system of assay [2] is HIV wild type virus strain IIIB. Put plainly: Standard Anti-Viral-Experiment (AVE), HIV-1 replication assay in MT4-LTR-EGFP cells, wild type IIIB. The assay is classed as cell-based. As to conditions: 3 days, EGFP signal.
Text: as §1, §2, §3

For assay [3], the system named is HIV-IIIB + 50% HS. Put plainly: Standard AVE (50% Human Serum), HIV-1 replication assay in MT4-LTR-EGFP cells. The assay is classed as cell-based. As to conditions: fold change vs EC50 in the assay without human serum. From the text: The HIV-1 replication assay (with 50% human serum) measures virus replication as an induction of enhanced green fluorescent protein (EGFP) expression, in the presence of 50% human serum. The indicator MT4-LTR-EGFP cells contain an EGFP gene under the control of the HIV-1 LTR promoter sequence. Successful HIV-1 infection results in viral Tat protein expression and subsequent induction of EGFP expression. Compounds/peptides inhibiting HIV-1 infection are expected to reduce EGFP expression as compared to the untreated HIV-infected control. Compounds/peptides binding to human serum are expected to have a reduced activity for inhibiting the virus in the assay.
Serial 4-fold dilutions of test compounds/peptides were mixed with HIV-1 and MT4-LTR-EGFP cells and incubated at 37° C., in the presence of 50% human serum. After 3 days, the wells were examined for EGFP expression using an argon laser-scanning microscope. The effective compound/peptide concentration inhibiting 50% of the virus-induced EGFP signal (EC50) was determined by linear interpolation of the EGFP signal vs. logarithm of the compound concentration; T20, C34 and Sifuvirtide were added as reference compounds. Results were reported as a fold change in EC50, as compared with the acquired EC50 in the assay without human serum.

Starred links: 1 amine or outer side, 2 acyl side, 3 side chain; linkers in the order of their positions; H or OH if unused. *: point of attachment. cholesteryl‑oxycarbonylmethyl = CC(C)CCC[C@@H](C)[C@H]1CC[C@H]2[C@@H]3CC=C4C[C@@H](OC(=O)C*)CC[C@]4(C)[C@H]3CC[C@]12C; cholesteryl‑succinyl = CC(C)CCC[C@@H](C)[C@H]1CC[C@H]2[C@@H]3CC=C4C[C@@H](OC(=O)CCC(=O)*)CC[C@]4(C)[C@H]3CC[C@]12C; Palmitoyl = CCCCCCCCCCCCCCCC(=O)*; Suc = O=C(CCC(=O)[*:2])[*:1]; Hexanoyl = CCCCCC(=O)*; Pentanoyl = CCCCC(=O)*

Consider “Ac-ANYLALIEALIRAAQEQQEKNEAALRGSGK(cholesteryl-succinyl)-NH2 (Ac-ANYLALIEALIRAAQEQQEKNEAALRGSGK(cholesteryl‑succinyl)-NH2; SMILES CC[C@H](C)[C@H](NC(=O)[C@H](CC(C)C)NC(=O)[C@H](C)NC(=O)[C@H](CCC(=O)O)NC(=O)[C@@H](NC(=O)[C@H](CC(C)C)NC(=O)[C@H](C)NC(=O)[C@H](CC(C)C)NC(=O)[C@H](Cc1ccc(O)cc1)NC(=O)[C@H](CC(N)=O)NC(=O)[C@H](C)NC(C)=O)[C@@H](C)CC)C(=O)N[C@@H](CCCNC(=N)N)C(=O)N[C@@H](C)C(=O)N[C@@H](C)C(=O)N[C@@H](CCC(N)=O)C(=O)N[C@@H](CCC(=O)O)C(=O)N[C@@H](CCC(N)=O)C(=O)N[C@@H](CCC(N)=O)C(=O)N[C@@H](CCC(=O)O)C(=O)N[C@@H](CCCCN)C(=O)N[C@@H](CC(N)=O)C(=O)N[C@@H](CCC(=O)O)C(=O)N[C@@H](C)C(=O)N[C@@H](C)C(=O)N[C@@H](CC(C)C)C(=O)N[C@@H](CCCNC(=N)N)C(=O)NCC(=O)N[C@@H](CO)C(=O)NCC(=O)N[C@@H](CCCCNC(=O)CCC(=O)O[C@H]1CC[C@@]2(C)C(=CC[C@H]3[C@@H]4CC[C@H]([C@H](C)CCCC(C)C)[C@@]4(C)CC[C@@H]32)C1)C(N)=O) [Peptide 69]”, for which, in assay [1], the “HIV-HXB2D Q40H mutant (fold change in EC50)” value turned out to be 11. In assay [2], this substance yielded an EC50 of 0.3 nM.

For the substance “Hexanoyl-ECYLACIEELIRKAQEQQEKNEAALR-NH2 (cysteine pairing not given here) [Peptide 42]”, the “HIV-HXB2D Q40H mutant (fold change in EC50)” value in assay [1] stood at 27. Also, the concentration for a half-maximal effect (EC50) in assay [2] worked out at 1 nM.

“Pentanoyl-ECYLACIEALIRAAQEQQEKNEAALR-NH2 (cysteine pairing not given here) [Peptide 38]”: the “HIV-HXB2D Q40H mutant (fold change in EC50)” value in assay [1] was 45. The same substance gave an EC50 in assay [2] of 1 nM.

As to “Pentanoyl-ECYLACIEELIRKAQEQQEKNEAALR-NH2 (cysteine pairing not given here) [Peptide 41]”, the “HIV-HXB2D Q40H mutant (fold change in EC50)” value in assay [1] worked out at 42. This substance returned an EC50 in assay [2] of 1 nM.

Turning to “SWETWEREIENYTRQIYRILEESQEQQDRNERDLLE [Sifuvirtide, reference compound]”, the “HIV-HXB2D Q40H mutant (fold change in EC50)” value in assay [1] is recorded as 2. This substance also registered a half-maximal effective concentration (EC50) in assay [2] of 2 nM.

Take “Suc-ANYLALIEALIRAAQEQQEKNEAALRGSGC(cholesteryl-oxycarbonylmethyl)-NH2 (Suc-ANYLALIEALIRAAQEQQEKNEAALRGSGC(cholesteryl‑oxycarbonylmethyl)-NH2; SMILES CC[C@H](C)[C@H](NC(=O)[C@H](CC(C)C)NC(=O)[C@H](C)NC(=O)[C@H](CCC(=O)O)NC(=O)[C@@H](NC(=O)[C@H](CC(C)C)NC(=O)[C@H](C)NC(=O)[C@H](CC(C)C)NC(=O)[C@H](Cc1ccc(O)cc1)NC(=O)[C@H](CC(N)=O)NC(=O)[C@H](C)NC(=O)CCC(=O)O)[C@@H](C)CC)C(=O)N[C@@H](CCCNC(=N)N)C(=O)N[C@@H](C)C(=O)N[C@@H](C)C(=O)N[C@@H](CCC(N)=O)C(=O)N[C@@H](CCC(=O)O)C(=O)N[C@@H](CCC(N)=O)C(=O)N[C@@H](CCC(N)=O)C(=O)N[C@@H](CCC(=O)O)C(=O)N[C@@H](CCCCN)C(=O)N[C@@H](CC(N)=O)C(=O)N[C@@H](CCC(=O)O)C(=O)N[C@@H](C)C(=O)N[C@@H](C)C(=O)N[C@@H](CC(C)C)C(=O)N[C@@H](CCCNC(=N)N)C(=O)NCC(=O)N[C@@H](CO)C(=O)NCC(=O)N[C@@H](CSCC(=O)O[C@H]1CC[C@@]2(C)C(=CC[C@H]3[C@@H]4CC[C@H]([C@H](C)CCCC(C)C)[C@@]4(C)CC[C@@H]32)C1)C(N)=O) [Peptide 35]”: the “HIV-HXB2D Q40H mutant (fold change in EC50)” value in assay [1] was found to be 24. In addition, in assay [2], the EC50 turned out to be 0.3 nM.

As to “Suc-ECYLACIEELIRKAQEQQEKNEAALR-NH2 (cysteine pairing not given here) [Peptide 90]”, the “HIV-HXB2D Q40H mutant (fold change in EC50)” value in assay [1] stood at 65. This substance displayed a concentration for a half-maximal effect (EC50) in assay [2] of 1 nM.

As to “Suc-ECYLRCIEELIRKAQEQQEKNEAALRGSGK(palmitoyl)-NH2 (Suc-ECYLRCIEELIRKAQEQQEKNEAALRGSGK(Palmitoyl)-NH2; cysteine pairing not given here) [Peptide 88]”, the “HIV-IIIB + 50% HS (Fold change in EC50)” value in assay [3] stood at 3. The substance further registered an EC50 in assay [2] of 0.06 nM.

“Suc-ENYLRLIEELIRKAQEQQEKNEAALRGSGC(cholesteryl-oxycarbonylmethyl)-NH2 (Suc-ENYLRLIEELIRKAQEQQEKNEAALRGSGC(cholesteryl‑oxycarbonylmethyl)-NH2; SMILES CC[C@H](C)[C@H](NC(=O)[C@H](CC(C)C)NC(=O)[C@H](CCC(=O)O)NC(=O)[C@H](CCC(=O)O)NC(=O)[C@@H](NC(=O)[C@H](CC(C)C)NC(=O)[C@H](CCCNC(=N)N)NC(=O)[C@H](CC(C)C)NC(=O)[C@H](Cc1ccc(O)cc1)NC(=O)[C@H](CC(N)=O)NC(=O)[C@H](CCC(=O)O)NC(=O)CCC(=O)O)[C@@H](C)CC)C(=O)N[C@@H](CCCNC(=N)N)C(=O)N[C@@H](CCCCN)C(=O)N[C@@H](C)C(=O)N[C@@H](CCC(N)=O)C(=O)N[C@@H](CCC(=O)O)C(=O)N[C@@H](CCC(N)=O)C(=O)N[C@@H](CCC(N)=O)C(=O)N[C@@H](CCC(=O)O)C(=O)N[C@@H](CCCCN)C(=O)N[C@@H](CC(N)=O)C(=O)N[C@@H](CCC(=O)O)C(=O)N[C@@H](C)C(=O)N[C@@H](C)C(=O)N[C@@H](CC(C)C)C(=O)N[C@@H](CCCNC(=N)N)C(=O)NCC(=O)N[C@@H](CO)C(=O)NCC(=O)N[C@@H](CSCC(=O)O[C@H]1CC[C@@]2(C)C(=CC[C@H]3[C@@H]4CC[C@H]([C@H](C)CCCC(C)C)[C@@]4(C)CC[C@@H]32)C1)C(N)=O) [Peptide 32]”: the “HIV-IIIB + 50% HS (Fold change in EC50)” value in assay [3] was 13. In assay [2], the 50% effective concentration (EC50) turned out to be 0.04 nM.

Consider “Suc-ENYLRLIEELIRKAQEQQEKNEAALRGSGK(palmitoyl)-NH2 (Suc-ENYLRLIEELIRKAQEQQEKNEAALRGSGK(Palmitoyl)-NH2; SMILES CCCCCCCCCCCCCCCC(=O)NCCCC[C@H](NC(=O)CNC(=O)[C@H](CO)NC(=O)CNC(=O)[C@H](CCCNC(=N)N)NC(=O)[C@H](CC(C)C)NC(=O)[C@H](C)NC(=O)[C@H](C)NC(=O)[C@H](CCC(=O)O)NC(=O)[C@H](CC(N)=O)NC(=O)[C@H](CCCCN)NC(=O)[C@H](CCC(=O)O)NC(=O)[C@H](CCC(N)=O)NC(=O)[C@H](CCC(N)=O)NC(=O)[C@H](CCC(=O)O)NC(=O)[C@H](CCC(N)=O)NC(=O)[C@H](C)NC(=O)[C@H](CCCCN)NC(=O)[C@H](CCCNC(=N)N)NC(=O)[C@@H](NC(=O)[C@H](CC(C)C)NC(=O)[C@H](CCC(=O)O)NC(=O)[C@H](CCC(=O)O)NC(=O)[C@@H](NC(=O)[C@H](CC(C)C)NC(=O)[C@H](CCCNC(=N)N)NC(=O)[C@H](CC(C)C)NC(=O)[C@H](Cc1ccc(O)cc1)NC(=O)[C@H](CC(N)=O)NC(=O)[C@H](CCC(=O)O)NC(=O)CCC(=O)O)[C@@H](C)CC)[C@@H](C)CC)C(N)=O) [Peptide 55]”, for which the “HIV-IIIB + 50% HS (Fold change in EC50)” value in assay [3] is recorded as 3. In addition, the midpoint of the response in assay [2], the EC50, lay at 0.05 nM.

In the case of “Suc-aNYLALIEALIRAAQEQQEKNEAALr-NH2 [Peptide 12]”, the “HIV-IIIB + 50% HS (Fold change in EC50)” value in assay [3] is given as 0.4. In assay [2], the EC50 is 10 nM.
